According to ChEMBL document CHEMBL1125958, “Antihypertensive benzopyran-related potassium channel activators: a role for lipophilicity” (Bioorg Med Chem Lett, 1991):

Tests used:
[1] = system: Rattus norvegicus; experiment: Compound was tested for mean arterial pressure in the spontaneously hypertensive rat, activity expressed as mean arterial pressure before peroral administration of 0.17 mg/Kg dose; assay type: functional, Artery
[2] = system: Rattus norvegicus; experiment: Compound was tested for mean arterial pressure in the spontaneously hypertensive rat, activity expressed as maximum % change in pressure after 3 hours of oral administration of 1.5 mg/Kg; assay type: functional, Artery

| Compound | Mean arterial blood pressure [1] [mmHg] | Change [2] [%] |
| --- | --- | --- |
| CC1(C)Oc2ccc(C#N)cc2[C@@H](N2Cc3ccccc3C2=O)[C@@H]1O | 173 | -23 |
| CC1(C)c2ccc(C#N)cc2[C@@H](NC(=O)c2ccco2)[C@@H]1O | 182 | -35 |
| CC1(C)Oc2ccccc2[C@@H](N2Cc3ccccc3C2=O)[C@@H]1O | 184 | -26 |
| CC1(C)Oc2ccc(C#N)cc2[C@@H](N2CCCC2=O)[C@@H]1O [CROMAKALIM] | 171 | -28 |
| CC1(C)Oc2ccc(OC(F)(F)F)cc2[C@@H](NC(=O)c2ccco2)[C@@H]1O | 175 | -30 |
| CC1(C)Oc2ccc(OC(F)(F)F)cc2[C@@H](N2Cc3ccccc3C2=O)[C@@H]1O [CELIKALIM] | 180 | -28 |
